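These data come from cells grown in 96-well plates and exposed to compound for 48 hours at five concentrations. Here, GI50 denotes the concentration required for 50% inhibition of growth.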 Activity calls are given as the source filed them. No stated cut-off is given here; in the data, active = GI50 up to about 1.1 µM and inactive = higher.
Assays:
Experiment in all cases: NCI tumour cell line growth inhibition, 48 h
[1] = test system: UO-31
[2] = test system: NCI-H226
[3] = test system: SR
[4] = test system: HCT-15
[5] = test system: EKVX
[6] = test system: DU-145
[7] = test system: SNB-19
[8] = test system: SK-MEL-2
[9] = test system: MCF7
[10] = test system: NCI/ADR-RES
[11] = test system: MDA-MB-231
[12] = test system: SF-268
[13] = test system: ACHN
[14] = test system: UACC-257
[15] = test system: Malme-3M
[16] = test system: 786-0
[17] = test system: OVCAR-4
[18] = test system: SK-OV-3
[19] = test system: OVCAR-5
[20] = test system: SW-620
[21] = test system: HCT-116
[22] = test system: HOP-92
[23] = test system: PC-3
[24] = test system: Hs-578T
[25] = test system: KM12
[26] = test system: SF-539
[27] = test system: NCI-H23
[28] = test system: U-251
[29] = test system: OVCAR-3
[30] = test system: OVCAR-8
[31] = test system: SK-MEL-5
[32] = test system: RXF 393
[33] = test system: M14
[34] = test system: A549
[35] = test system: MOLT-4
[36] = test system: RPMI-8226
[37] = test system: SN12C
[38] = test system: LOX IMVI
[39] = test system: TK-10
[40] = test system: NCI-H460
[41] = test system: HCC 2998
[42] = test system: SK-MEL-28
[43] = test system: HT-29
[44] = test system: HL-60
[45] = test system: HOP-62
[46] = test system: MDA-MB-435
[47] = test system: K562
[48] = test system: T47D
[49] = test system: COLO 205
[50] = test system: SF-295
[51] = test system: UACC-62
[52] = test system: MDA-N
[53] = test system: A498
[54] = test system: IGROV-1
[55] = test system: NCI-H522
[56] = test system: CAKI-1
[57] = test system: SNB-75
[58] = test system: BT-549

CCOC(=O)C1C/C(C)=C(/C)SCCCS1 (stereo unspecified)
GI50 [1]: > 100 µM (inactive) | GI50 [2]: > 100 µM (inactive) | GI50 [3]: 65.5 µM (inactive) | GI50 [4]: > 100 µM | GI50 [5]: > 100 µM (inactive) | GI50 [6]: > 100 µM (inactive) | GI50 [7]: > 100 µM (inactive) | GI50 [8]: > 100 µM (inactive) | GI50 [9]: > 100 µM (inactive) | GI50 [10]: > 100 µM (inactive) | GI50 [11]: > 100 µM (inactive) | GI50 [12]: > 100 µM (inactive) | GI50 [13]: > 100 µM (inactive) | GI50 [14]: > 100 µM (inactive) | GI50 [15]: > 100 µM (inactive) | GI50 [16]: > 100 µM (inactive) | GI50 [17]: > 100 µM (inactive) | GI50 [18]: > 100 µM (inactive) | GI50 [19]: > 100 µM (inactive) | GI50 [20]: > 100 µM (inactive) | GI50 [21]: 50.2 µM (inactive) | GI50 [22]: > 100 µM (inactive) | GI50 [23]: > 100 µM (inactive) | GI50 [24]: > 100 µM (inactive) | GI50 [25]: > 100 µM (inactive) | GI50 [26]: > 100 µM (inactive) | GI50 [27]: 80 µM (inactive) | GI50 [28]: > 100 µM (inactive) | GI50 [29]: 98.9 µM (inactive) | GI50 [30]: > 100 µM (inactive) | GI50 [31]: 45.5 µM (inactive) | GI50 [32]: > 100 µM (inactive) | GI50 [33]: > 100 µM (inactive) | GI50 [34]: > 100 µM (inactive) | GI50 [35]: 38.2 µM (inactive) | GI50 [36]: 58.6 µM (inactive) | GI50 [37]: > 100 µM (inactive) | GI50 [38]: 68.5 µM (inactive) | GI50 [39]: > 100 µM (inactive) | GI50 [40]: > 100 µM (inactive) | GI50 [41]: > 100 µM (inactive) | GI50 [42]: > 100 µM (inactive) | GI50 [43]: > 100 µM (inactive) | GI50 [44]: 28.6 µM (inactive) | GI50 [45]: > 100 µM (inactive) | GI50 [46]: > 100 µM (inactive) | GI50 [47]: 46.1 µM (inactive) | GI50 [48]: 60.3 µM (inactive) | GI50 [49]: > 100 µM (inactive) | GI50 [50]: > 100 µM (inactive) | GI50 [51]: > 100 µM (inactive) | GI50 [52]: > 100 µM (inactive) | GI50 [53]: > 100 µM (inactive) | GI50 [54]: > 100 µM (inactive) | GI50 [55]: 13.5 µM (inactive)

S=c1oc(CCCCCCCCc2nn(CNc3ccccc3)c(=S)o2)nn1CNc1ccccc1
GI50 [1]: > 100 µM (inactive) | GI50 [2]: > 100 µM (inactive) | GI50 [4]: > 100 µM | GI50 [5]: > 100 µM (inactive) | GI50 [6]: > 100 µM (inactive) | GI50 [7]: > 100 µM (inactive) | GI50 [8]: > 100 µM (inactive) | GI50 [9]: > 100 µM (inactive) | GI50 [10]: > 100 µM (inactive) | GI50 [11]: > 100 µM (inactive) | GI50 [12]: > 100 µM (inactive) | GI50 [13]: > 100 µM (inactive) | GI50 [14]: > 100 µM (inactive) | GI50 [56]: > 100 µM (inactive) | GI50 [16]: > 100 µM (inactive) | GI50 [17]: > 100 µM (inactive) | GI50 [18]: > 100 µM (inactive) | GI50 [19]: > 100 µM (inactive) | GI50 [20]: > 100 µM (inactive) | GI50 [21]: > 100 µM (inactive) | GI50 [22]: > 100 µM (inactive) | GI50 [23]: > 100 µM (inactive) | GI50 [25]: > 100 µM (inactive) | GI50 [57]: > 100 µM (inactive) | GI50 [27]: > 100 µM (inactive) | GI50 [28]: > 100 µM (inactive) | GI50 [31]: > 100 µM (inactive) | GI50 [33]: > 100 µM (inactive) | GI50 [34]: > 100 µM (inactive) | GI50 [35]: > 100 µM (inactive) | GI50 [36]: > 100 µM (inactive) | GI50 [37]: > 100 µM (inactive) | GI50 [39]: > 100 µM (inactive) | GI50 [40]: > 100 µM (inactive) | GI50 [41]: > 100 µM (inactive) | GI50 [42]: > 100 µM (inactive) | GI50 [43]: > 100 µM (inactive) | GI50 [45]: > 100 µM (inactive) | GI50 [46]: > 100 µM (inactive) | GI50 [47]: 57.5 µM (inactive) | GI50 [58]: > 100 µM (inactive) | GI50 [49]: > 100 µM (inactive) | GI50 [50]: > 100 µM (inactive) | GI50 [51]: > 100 µM (inactive) | GI50 [53]: > 100 µM (inactive) | GI50 [55]: > 100 µM (inactive)

From ChEMBL document CHEMBL1201862, “PubChem BioAssay data set” (2004)
